Structures are written as SMILES.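 Method: 48-hour compound exposure of cells in 96-well plates, five concentrations, linear interpolation of endpoints. At the GI50, growth is halved.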 Activity calls are given as the source filed them. Cut-off read from the data, not from the text of the source: active = GI50 up to about 1.1 µM and inactive = higher.

Test systems include XF498; LXFL 529; SNB-78; DLD-1; DMS-273; KM-20L2; DMS-114; RXF 631; HOP-18.
Holding throughout (experiment): NCI-60 cell line screen, 48 h

Take `CSC(C1c2ccccc2N(c2ccc(C)cc2)c2[nH]c(=O)n(C)c(=O)c21)S(=O)(=O)c1ccc(C)cc1` (stereo unspecified): the GI50 in the assay on XF498, in the assay on LXFL 529, in the assay with SNB-78, in the assay with DLD-1, in the assay on DMS-273 and in the assay with KM-20L2 was > 100 µM (inactive) throughout. Further, the GI50 in the assay on DMS-114 was > 100 µM (inactive).

With `Cn1c2ccccc2c2cc(-c3ccccc3)c3c(c21)C(=O)C=CC3=O`, the GI50 in the assay on XF498 was 17.8 µM (inactive); in the assay on LXFL 529, 6.68 µM (inactive); with SNB-78, > 42.1 µM (inactive); in the assay with DLD-1, 13.6 µM (inactive); in the assay with DMS-273, 19.7 µM (inactive); with DMS-114, 9.38 µM (inactive). The GI50 with RXF 631 was 30.3 µM (inactive).

In the case of `C[N+]1(CCNP(=S)(NCC[N+]2(C)Cc3c(ccc4c3OCO4)C3C2c2cc4c(cc2C[C@@H]3O)OCO4)NCC[N+]2(C)Cc3c(ccc4c3OCO4)C3C2c2cc4c(cc2C[C@@H]3O)OCO4)Cc2c(ccc3c2OCO3)C2C1c1cc3c(cc1C[C@H]2O)OCO3` (stereo partly specified), the GI50 with XF498, in the assay on LXFL 529, in the assay on SNB-78, with DLD-1, in the assay on DMS-273 and with HOP-18 was < 0.00191 µM (active) each time. Further, the GI50 in the assay on KM-20L2 was < 0.00191 µM (active).

`CC(N)Cc1cccc(C(F)(F)F)c1` (stereo unspecified): the GI50 in the assay with LXFL 529, in the assay on SNB-78, in the assay on DLD-1, with DMS-273, in the assay on HOP-18 and in the assay with KM-20L2 was > 100 µM (inactive) throughout. Besides, the GI50 in the assay on DMS-114 and in the assay with RXF 631 was > 100 µM (inactive) in each case.

Turning to `CN(C)CCNC(=O)c1cccc2c(Nc3ccc(S(N)(=O)=O)cc3)c3ccccc3nc12`, the GI50 with XF498 is 0.209 µM (active); in the assay with LXFL 529, 0.333 µM (active); in the assay on SNB-78 it was 1.82 µM (inactive); in the assay with DLD-1 it was 1.72 µM (inactive); in the assay on DMS-273 it was 0.783 µM (active); with HOP-18, 2.71 µM (inactive). Also, the GI50 was 2.71 µM (inactive) in the assay with KM-20L2, 0.461 µM (active) in the assay with DMS-114 and 1.4 µM (inactive) in the assay on RXF 631.

For the compound `CCCCCCCCCCCCCCCCCC(CCCCCCCCCCCCCCCCC)OP(=O)(O)O`, the GI50 in the assay with LXFL 529, in the assay with SNB-78, with DMS-273, with HOP-18, in the assay with KM-20L2 and with DMS-114 was > 100 µM (inactive) each time.

In the case of `C=C(C)C(O)CCC1(C)C=Cc2c(c(C)cc3c2[nH]c2ccccc23)O1` (stereo unspecified), the GI50 was 6.67 µM (inactive) with XF498; 8.05 µM (inactive) with LXFL 529; 8.77 µM (inactive) in the assay with SNB-78; 7.28 µM (inactive) in the assay on DLD-1; 3.99 µM (inactive) in the assay with KM-20L2; 11.6 µM (inactive) in the assay with DMS-114.

With `COc1ccc(CNc2nc3ccc(C(F)(F)F)cc3nc2-c2ccccc2)cc1OC`, the GI50 in the assay with XF498 was 13.2 µM (inactive); in the assay with LXFL 529 it was 43.4 µM (inactive); with SNB-78, > 100 µM (inactive); in the assay with DMS-273 it was 35.1 µM (inactive); in the assay with HOP-18, > 100 µM (inactive); with KM-20L2, 47.6 µM (inactive). For the same compound, in the assay with RXF 631, the GI50 is 16.7 µM (inactive).

Turning to `Cc1cc(NCCCCCCNc2cc(C)nc3cc(N(C)C)ccc23)c2ccc(N(C)C)cc2n1`, the GI50 in the assay on XF498 was 13.7 µM (inactive); in the assay with DLD-1 it was 39.3 µM (inactive); with DMS-273, 3.64 µM (inactive); in the assay on RXF 631 it was > 100 µM (inactive).

`COc1ccc(C[C@@H]2NC[C@@H](O)[C@@H]2OC(C)=O)cc1`: the GI50 is 1.32 µM (inactive) in the assay with LXFL 529; 1.77 µM (inactive) in the assay on DLD-1; 0.634 µM (active) with DMS-273; 1.73 µM (inactive) with HOP-18; 3.95 µM (inactive) in the assay on KM-20L2; 1.45 µM (inactive) in the assay on DMS-114.

Regarding `N#CC12C3C4CC5C6C4C1C6C(O)(C53)N2Cc1ccccc1` (stereo unspecified), the GI50 with XF498, in the assay with LXFL 529, with DLD-1, in the assay on DMS-273, in the assay with HOP-18 and in the assay on KM-20L2 was > 100 µM (inactive) each time. The GI50 in the assay on DMS-114 and with RXF 631 was > 100 µM (inactive) in each case.

With `CC(=O)C1=C(O)C2C3c4c[nH]c5cccc(c45)CC3C(C)(C)N2C1=O` (stereo unspecified), the GI50 in the assay with XF498 is 51.4 µM (inactive); with LXFL 529 it was 78.3 µM (inactive); in the assay on SNB-78, > 100 µM (inactive); with DLD-1 it was 40.8 µM (inactive); with DMS-273 it was 27.5 µM (inactive); in the assay on HOP-18, 21.2 µM (inactive). Further, the values for the GI50 in the assay on KM-20L2 and in the assay on DMS-114 were 31.6 µM (inactive) and 20.4 µM (inactive), respectively.

With `CC(O)CCCOC(c1ccccc1)(c1ccccc1)c1ccccc1` (stereo unspecified), the GI50 with XF498 was 14.7 µM (inactive); in the assay with LXFL 529 it was 14.7 µM (inactive); in the assay on SNB-78 it was 14.7 µM (inactive); in the assay with DLD-1, 17.2 µM (inactive); in the assay with KM-20L2 it was 10.4 µM (inactive); with DMS-114 it was 13.2 µM (inactive).

For the compound `CC1=CC[C@@H](C(C)(C)O)C[C@@H]1O`, the GI50 in the assay with XF498, with LXFL 529, with SNB-78, in the assay with DLD-1, in the assay on KM-20L2 and in the assay with DMS-114 was > 5000 µM (inactive) each time. Moreover, in the assay on RXF 631, the GI50 is > 5000 µM (inactive).

Consider `O=C(/C=C/c1ccccc1)CC(=O)CCC(=O)Nc1ccc(Cl)cc1`, for which the GI50 is 6.75 µM (inactive) in the assay on LXFL 529; > 100 µM (inactive) in the assay with SNB-78; 29.2 µM (inactive) in the assay on DLD-1; 52.7 µM (inactive) in the assay on DMS-273; > 100 µM (inactive) with HOP-18; 9.73 µM (inactive) in the assay on KM-20L2. In addition, the GI50 in the assay on DMS-114 was 57 µM (inactive).

As for `Cc1ccc(NC(=O)CCc2cc(C(C)(C)C)nc(S)n2)cc1C`, the GI50 in the assay on XF498, in the assay on LXFL 529, in the assay with SNB-78, with DMS-273, with HOP-18 and with KM-20L2 was > 100 µM (inactive) in each case. The GI50 in the assay on DMS-114 was > 100 µM (inactive).

Take `COC(=O)c1cc2ccccc2c2nc3ccccc3c(Cl)c12`: the GI50 was > 100 µM (inactive) in the assay on XF498; > 100 µM (inactive) in the assay with LXFL 529; > 100 µM (inactive) in the assay on DLD-1; > 100 µM (inactive) with DMS-273; 11.4 µM (inactive) in the assay with KM-20L2; > 100 µM (inactive) with DMS-114. For the same compound, in the assay with RXF 631, the GI50 was > 100 µM (inactive).

Take `O=C1C(Cl)C(c2cccc([N+](=O)[O-])c2)N1n1cnc2ccccc2c1=O` (stereo unspecified): the GI50 in the assay with LXFL 529 is 92.3 µM (inactive); in the assay on DLD-1, > 100 µM (inactive); with DMS-273 it was > 100 µM (inactive); in the assay with HOP-18, 11 µM (inactive); with KM-20L2 it was 85.7 µM (inactive); with DMS-114, 86.9 µM (inactive).

Consider `CCC(C)(O)c1cn(-c2ccc(S(=O)(=O)O)cc2)nn1` (stereo unspecified), for which the GI50 with XF498, in the assay on LXFL 529, with SNB-78, in the assay with DLD-1, in the assay with DMS-273 and in the assay on HOP-18 was > 100 µM (inactive) throughout. Moreover, the GI50 in the assay on KM-20L2, in the assay on DMS-114 and in the assay on RXF 631 was > 100 µM (inactive) throughout.

For `[O-]c1c2c(nn1-c1ccccc1)c1ccccc1c[n+]2Cc1ccccc1`, the GI50 in the assay with XF498, with LXFL 529, in the assay on SNB-78, in the assay on DLD-1, in the assay with DMS-273 and with HOP-18 was > 100 µM (inactive) throughout. Further, the GI50 in the assay with KM-20L2, with DMS-114 and in the assay on RXF 631 was > 100 µM (inactive) each time.
